This note sets out measurements from the kinase profiling compilation of Christmann-Franck et al. (2016).

Holding throughout (assay): KINOMEscan competition binding
What all share (details): compound 10.0 µM

Assay [1] concerns KIT (human), P10721 [V559D/V654A].
The subject of assay [2] is KIT (human), P10721 [L576P].
For assay [3], the system named is RET (human), P07949 [V804M].
Assay [4] concerns EGFR (human), P00533 [T790M/L858R].
In assay [5] the test system is EGFR (human), P00533 [747-751 del / S ins].
The subject of assay [6] is ALK (human), Q9UM73 [C1156Y].
Assay [7] concerns FLT3 (human), P36888 [D835H].
Assay [8] deals with FLT3 (human), P36888 [R834Q].
Assay [9] has as its system RET (human), P07949 [M918T].
Assay [10] deals with ALK (human), Q9UM73 [L1196M].
For assay [11], the system named is EGFR (human), P00533 [752-759 del].
Assay [12] relates to ABL1 (human), P00519 [Y253F].
Assay [13] deals with EGFR (human), P00533 [T790M].
The subject of assay [14] is MET (human), P08581 [Y1235D].
In assay [15] the test system is ABL1 (human), P00519 [H396P].

Chain of RET (human), P07949 [V804M] (P07949 whole entry V804M, looked up): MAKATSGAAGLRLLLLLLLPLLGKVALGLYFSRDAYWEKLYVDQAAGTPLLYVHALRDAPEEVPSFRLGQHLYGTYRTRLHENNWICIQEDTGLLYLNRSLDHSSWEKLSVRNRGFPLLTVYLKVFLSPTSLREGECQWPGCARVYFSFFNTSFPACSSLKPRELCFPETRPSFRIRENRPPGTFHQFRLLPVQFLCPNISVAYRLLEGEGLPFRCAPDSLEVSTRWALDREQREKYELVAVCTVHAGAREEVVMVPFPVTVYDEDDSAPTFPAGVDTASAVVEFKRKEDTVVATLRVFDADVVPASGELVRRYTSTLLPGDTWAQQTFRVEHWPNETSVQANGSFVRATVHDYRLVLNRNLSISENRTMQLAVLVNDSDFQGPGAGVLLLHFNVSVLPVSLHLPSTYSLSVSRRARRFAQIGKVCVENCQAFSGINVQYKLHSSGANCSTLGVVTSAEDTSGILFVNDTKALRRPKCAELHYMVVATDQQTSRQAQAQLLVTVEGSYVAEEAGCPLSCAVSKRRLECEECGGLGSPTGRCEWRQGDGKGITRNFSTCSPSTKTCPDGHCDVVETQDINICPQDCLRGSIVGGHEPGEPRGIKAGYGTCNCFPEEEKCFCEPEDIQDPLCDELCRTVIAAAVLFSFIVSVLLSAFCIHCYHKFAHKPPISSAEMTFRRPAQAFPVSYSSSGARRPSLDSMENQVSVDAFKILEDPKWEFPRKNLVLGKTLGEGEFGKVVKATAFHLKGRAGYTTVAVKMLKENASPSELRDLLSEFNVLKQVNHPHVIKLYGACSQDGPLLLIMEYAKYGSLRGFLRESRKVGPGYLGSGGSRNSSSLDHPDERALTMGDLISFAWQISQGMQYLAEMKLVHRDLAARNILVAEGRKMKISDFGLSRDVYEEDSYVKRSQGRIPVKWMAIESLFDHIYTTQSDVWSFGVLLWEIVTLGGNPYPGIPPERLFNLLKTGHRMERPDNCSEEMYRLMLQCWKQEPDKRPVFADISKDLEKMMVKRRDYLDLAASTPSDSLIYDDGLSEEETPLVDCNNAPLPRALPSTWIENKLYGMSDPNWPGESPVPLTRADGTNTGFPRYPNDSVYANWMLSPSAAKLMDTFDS
Chain of KIT (human), P10721 [L576P] (P10721 whole entry L576P, looked up): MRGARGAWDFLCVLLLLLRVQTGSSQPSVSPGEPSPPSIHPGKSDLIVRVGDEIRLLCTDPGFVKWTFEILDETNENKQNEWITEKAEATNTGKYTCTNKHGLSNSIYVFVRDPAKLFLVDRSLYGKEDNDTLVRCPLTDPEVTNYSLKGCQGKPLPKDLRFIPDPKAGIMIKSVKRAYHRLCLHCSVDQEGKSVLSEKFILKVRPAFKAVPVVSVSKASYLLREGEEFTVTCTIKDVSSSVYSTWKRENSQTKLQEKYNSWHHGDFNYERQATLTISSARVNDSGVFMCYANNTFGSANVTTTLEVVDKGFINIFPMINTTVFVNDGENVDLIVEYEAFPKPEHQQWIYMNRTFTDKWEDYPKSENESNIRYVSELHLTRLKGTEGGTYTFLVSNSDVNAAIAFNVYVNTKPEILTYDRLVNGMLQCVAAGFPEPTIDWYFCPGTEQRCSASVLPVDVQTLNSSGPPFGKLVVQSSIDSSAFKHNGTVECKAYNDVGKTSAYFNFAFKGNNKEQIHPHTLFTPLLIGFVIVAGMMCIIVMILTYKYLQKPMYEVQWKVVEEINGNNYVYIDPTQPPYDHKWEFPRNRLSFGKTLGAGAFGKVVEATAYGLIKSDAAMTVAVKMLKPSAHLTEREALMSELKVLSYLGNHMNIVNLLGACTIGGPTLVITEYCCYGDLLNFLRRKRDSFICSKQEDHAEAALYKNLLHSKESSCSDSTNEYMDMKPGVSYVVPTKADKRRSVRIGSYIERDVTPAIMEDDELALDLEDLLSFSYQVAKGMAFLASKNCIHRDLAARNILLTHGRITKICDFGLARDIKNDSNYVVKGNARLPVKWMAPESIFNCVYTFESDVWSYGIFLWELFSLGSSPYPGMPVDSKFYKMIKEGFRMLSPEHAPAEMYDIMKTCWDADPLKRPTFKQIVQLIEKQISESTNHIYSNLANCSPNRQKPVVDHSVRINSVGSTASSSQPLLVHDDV
Chain of RET (human), P07949 [M918T] (P07949 whole entry M918T, looked up): as the sequence (P07949 whole entry V804M, looked up) above, with M804V, M918T counted along it
Chain of KIT (human), P10721 [V559D/V654A] (P10721 whole entry V559D/V654A, looked up): as the sequence (P10721 whole entry L576P, looked up) above, with V559D, P576L, V654A counted along it
Chain of ALK (human), Q9UM73 [L1196M] (Q9UM73 whole entry L1196M, looked up): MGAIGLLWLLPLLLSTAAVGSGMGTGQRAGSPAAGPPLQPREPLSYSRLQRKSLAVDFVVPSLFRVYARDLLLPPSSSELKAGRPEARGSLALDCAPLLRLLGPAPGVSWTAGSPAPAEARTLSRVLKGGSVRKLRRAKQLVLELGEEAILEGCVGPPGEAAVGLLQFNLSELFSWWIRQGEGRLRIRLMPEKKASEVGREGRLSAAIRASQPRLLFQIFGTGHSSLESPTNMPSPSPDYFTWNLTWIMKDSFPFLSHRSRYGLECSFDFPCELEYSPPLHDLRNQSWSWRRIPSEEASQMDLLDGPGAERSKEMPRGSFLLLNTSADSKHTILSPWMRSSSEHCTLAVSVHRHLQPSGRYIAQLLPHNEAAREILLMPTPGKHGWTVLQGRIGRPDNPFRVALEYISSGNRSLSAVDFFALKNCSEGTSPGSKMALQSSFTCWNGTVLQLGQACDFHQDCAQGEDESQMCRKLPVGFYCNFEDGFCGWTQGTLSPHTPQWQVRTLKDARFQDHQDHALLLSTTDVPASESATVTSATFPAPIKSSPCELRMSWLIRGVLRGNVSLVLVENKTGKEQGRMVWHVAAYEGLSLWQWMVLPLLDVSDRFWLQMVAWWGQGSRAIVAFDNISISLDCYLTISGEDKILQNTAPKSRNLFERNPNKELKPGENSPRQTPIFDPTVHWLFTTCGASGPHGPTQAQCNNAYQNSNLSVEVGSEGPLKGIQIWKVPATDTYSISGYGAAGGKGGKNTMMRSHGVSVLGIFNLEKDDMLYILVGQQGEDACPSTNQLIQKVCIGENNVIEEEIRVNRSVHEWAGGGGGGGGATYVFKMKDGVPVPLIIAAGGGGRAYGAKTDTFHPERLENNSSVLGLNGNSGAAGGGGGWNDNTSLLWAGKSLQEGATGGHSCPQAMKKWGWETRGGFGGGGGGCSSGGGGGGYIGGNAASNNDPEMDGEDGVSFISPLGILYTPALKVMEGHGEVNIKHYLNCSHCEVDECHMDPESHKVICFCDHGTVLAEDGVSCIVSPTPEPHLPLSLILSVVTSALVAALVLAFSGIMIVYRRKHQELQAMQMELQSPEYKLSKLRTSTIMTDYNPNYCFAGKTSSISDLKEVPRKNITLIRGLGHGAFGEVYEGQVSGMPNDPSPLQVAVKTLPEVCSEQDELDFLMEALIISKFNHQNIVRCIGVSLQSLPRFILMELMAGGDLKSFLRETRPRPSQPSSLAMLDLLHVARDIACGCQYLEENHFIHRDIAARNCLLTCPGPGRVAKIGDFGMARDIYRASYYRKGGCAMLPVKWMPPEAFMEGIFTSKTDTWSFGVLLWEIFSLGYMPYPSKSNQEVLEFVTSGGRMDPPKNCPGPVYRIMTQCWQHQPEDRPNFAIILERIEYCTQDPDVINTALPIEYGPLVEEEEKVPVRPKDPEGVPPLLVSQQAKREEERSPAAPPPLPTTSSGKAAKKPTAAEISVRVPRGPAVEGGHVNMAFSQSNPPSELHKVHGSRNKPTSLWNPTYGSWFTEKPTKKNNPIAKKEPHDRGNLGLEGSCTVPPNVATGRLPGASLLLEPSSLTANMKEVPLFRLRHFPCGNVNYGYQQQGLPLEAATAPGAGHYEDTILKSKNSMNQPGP
Chain of ALK (human), Q9UM73 [C1156Y] (Q9UM73 whole entry C1156Y, looked up): as the sequence (Q9UM73 whole entry L1196M, looked up) above, with C1156Y, M1196L counted along it

For the compound `COc1cc2ncnc(Nc3cccc(Cl)c3)c2cc1OC`, the kinase still bound, per cent of control was found to be 82% in assay [1]; 56% in assay [2]; 94% in assay [3]; 22% in assay [4]; 3.2% in assay [5]; 31% in assay [6]. For the same compound, the kinase still bound, per cent of control worked out at 15% in [7]; 58% in assay [8]; 3.4% in assay [9]; 63% in assay [10]; 2.5% in assay [11]; 2.3% in assay [12]. Besides, the values for the kinase still bound, per cent of control in [13] and in [14] were 1.3% and 100%, respectively.
For `CCC(=O)N1CCN(c2ccc(-n3c(=O)ccc4cnc5ccc(-c6cnc7ccccc7c6)cc5c43)cc2C(F)(F)F)CC1`, the kinase still bound, per cent of control in assay [2] turned out to be 48%; in [3] it was 69%; in assay [15], 68%; in assay [4] it was 100%; in [5], 80%; in assay [7], 18%. The kinase still bound, per cent of control in assay [9] was found to be 51%; in assay [11] it was 84%; in [13], 100%; in assay [14] it was 100%.
For `O=c1[nH]c2ccccc2n1C1CCN(Cc2ccc(-c3nc4cc5[nH]cnc5cc4nc3-c3ccccc3)cc2)CC1`, the kinase still bound, per cent of control in [1] came out at 92%; in assay [2], 87%; in [3], 91%; in [4], 100%; in assay [5], 92%; in assay [6] it was 55%. The kinase still bound, per cent of control in assay [7] came out at 74%; in [8] it was 100%; in assay [9], 79%; in assay [10], 64%; in assay [11], 58%; in [12] it was 72%. In addition, the values for the kinase still bound, per cent of control in assay [13] and in assay [14] were 67% and 68%, respectively.
Consider `Cc1cn(-c2cc(C(=O)Nc3ccc(C)c(NC(=O)c4ccno4)c3)cc(C(F)(F)F)c2)cn1`, for which the kinase still bound, per cent of control in assay [1] was determined as 5.4%; in [2], 0%; in [3] it was 100%; in assay [15], 16%; in assay [4] it was 100%; in assay [5], 100%. Further, the kinase still bound, per cent of control amounted to 100% in [7]; 100% in assay [9]; 100% in [11]; 7.4% in assay [12]; 100% in assay [14].
